Measurements reported in PubChem BioAssay (NCI).
Several values for one entry are separate records, joined by “and”; a condition that tells them apart may be missing. Equal entries are not always repeated.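 Protocol summary: plate cells (96-well), add compound at 5 concentrations, incubate 48 h, interpolate endpoints linearly. Here, GI50 denotes the concentration required for 50% inhibition of growth. TGI: concentration producing complete growth inhibition.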 Activity calls are given as the source filed them. Rule as the data show it: active = GI50 below about 0.43 µM; inactive = the rest.

What was measured:
Assay in all cases: DTP human tumour cell line panel, 48 h
[1] = tested on: DMS 273 small cell lung
[2] = tested on: LXFL 529 NSCLC
[3] = tested on: DLD-1 colon
[4] = tested on: M19-MEL melanoma
[5] = tested on: HOP-18 NSCLC
[6] = tested on: KM20L2 colon
[7] = tested on: MDA-N
[8] = tested on: XF 498 CNS

SMILES	TGI [1]	TGI [2] [µM]	TGI [3]	TGI [4]	TGI [5]	TGI [6] [µM]	TGI [7] [µM]	TGI [8] [µM]	also measured
c1ccc(-c2csc3ncn4cnnc4c23)cc1	> 100 µM	> 100	> 100 µM	> 100 µM	> 100 µM	> 100			
NC(=O)CC(N)c1nn[nH]n1 (configuration not stated)							> 100		
Cc1cc(O)c2c3c(ccc2c1)C(=O)c1c(O)cccc1C3=O							0.353		
O=c1[nH]c2ccccc2n1C1CCN(CCCC(c2ccc(F)cc2)c2ccc(F)cc2)CC1	11.9 µM	13.4	13.9 µM	13.1 µM	29 µM	5.87	21.4	11.6	
Cc1ccc(C2=Nc3ccccc3SC(c3cccc4c3OCO4)C2)cc1 (configuration not stated)	40.2 µM	28.9	90.3 µM	36.3 µM	38.4 µM	41.2		29	
Cn1nc(-c2ccccc2)c(C(=O)/C=C/c2ccc(Cl)cc2)c(N2CCOCC2)c1=O	13.8 µM	9.89	13.6 µM	20.7 µM	17 µM	13.8			
Cc1cc2c(c(=O)o1)C1=S(SC(c3ccccc3)=C1)S2 (configuration not stated)							> 100		
O=[N+]([O-])/C=C/c1ccc(Cl)cc1Cl	29.7 µM	27.1	84.4 µM	19.5 µM		42.1			
N#C/C(=C1\OC(=N)C(c2ccc(Cl)cc2Cl)C1=O)c1ccc(Cl)cc1Cl (configuration not stated)	> 100 µM	> 100	> 100 µM	> 100 µM		> 100		> 100	
O=C(c1c(O)cc(O)cc1O)C1Cc2ccccc21 (configuration not stated)	> 100 µM	> 100	> 100 µM	> 100 µM	> 100 µM	> 100			
Cc1ccc(S(=O)(=O)NC(=O)OC23COCN2COC3)cc1							> 100		
c1ccc(CN2COc3c(ccc4c5c(ccc34)CN(Cc3ccccc3)CO5)C2)cc1		> 100	> 100 µM	> 100 µM	> 100 µM	> 100	> 100		
CC(N)CC(=O)O (configuration not stated)	> 5000 µM	> 5000	> 5000 µM	> 5000 µM	> 5000 µM	> 5000			
O=[N+]([O-])c1cc(Cc2cc([N+](=O)[O-])c3cccnc3c2O)c(O)c2ncccc12							> 80		
CCOC(=O)C(Cc1ccc(N(CCCl)CCCl)cc1)NC(=O)C(Cc1ccccc1)NC(C)=O (configuration not stated)							> 0.371		
O=C(CC(=O)c1ccccc1)C(=O)Nc1ccc(Cl)cc1	> 100 µM	> 100	> 100 µM		> 100 µM	> 100		> 100	
CC(C)OC(=O)C1Cc2c([nH]c3ccccc23)C(c2ccccc2)N1 (configuration not stated)	> 100 µM	> 100	> 100 µM	> 100 µM		> 100		> 100	
O=C(Cc1ccccc1)C(c1ccccc1)S(=O)(=O)c1ccccc1 (configuration not stated)	> 100 µM	> 100	> 100 µM	> 100 µM	> 100 µM	> 100		> 100	

SMILES	TGI [1]	TGI [2] [µM]	TGI [3]	TGI [4]	TGI [5]	TGI [6] [µM]	TGI [7] [µM]	TGI [8] [µM]	also measured
[Cl][Cu][Cl]							> 10		GI50 [7]: > 10 µM
C#CCNC(=O)NC(CCCCNC(=O)OCc1ccccc1)C(=O)OCc1ccccc1 (configuration not stated)	> 100 µM	> 100	> 100 µM	27.6 µM	> 68.2 µM	> 100	> 68.3	35.7	
O=c1[nH]c(=S)[nH]c(-c2ccccc2)c1Cc1c(O)ccc2ccccc12							89.5		
COc1c(OC(C)C)cc2cc(O)c(C(=O)NC3Cc4ccc(c(Cl)n4)O[C@@H]4C=C5C#C/C(=C\C#CC6OC56C4OC4CC(C)(O)C(O)C(C)O4)C(OC4CC(O)C(N(C)C)C(C)O4)COC3=O)cc2c1OC (some centres not stated)	12.7 µg/mL		37.5 µg/mL	37.5 µg/mL			> 36.3		GI50 [1]: 0.279 µg/mL; outcome [2]: inactive; GI50 [3]: 8.16 µg/mL; GI50 [4]: 1.68 µg/mL; outcome [5]: inactive; outcome [6]: inactive; outcome [8]: inactive
C[P+]1(c2ccccc2)CCCCC1	> 100 µM	> 100	> 100 µM	> 100 µM		> 100			
C=C1C=CC2(Br)OC3CC(C)(Cl)C(Br)CC13C2(C)C (configuration not stated)	> 100 µM	> 100	> 100 µM	44.9 µM		49.7		27.9	
COc1c(CC=C(C)C)c(O)c(C(CC(C)C)c2c(O)c(CC=C(C)C)c(O)c(C(C)=O)c2O)c(O)c1C(C)=O (configuration not stated)	1.33 µM		10.9 µM	5.13 µM	14.7 µM		8.08	2.09	
CC(=O)Nc1ccc(S(=O)(=O)NN(C)S(=O)(=O)c2ccc(C)cc2)cc1			> 100 µM	> 100 µM		> 100			
Cc1ccc(NC(=O)/C(C#N)=C/c2ccccc2)c(C)c1	> 100 µM	> 100	> 100 µM	> 100 µM	> 100 µM	> 100		> 100	
CN(C)c1nc(N)c(C#N)c(C#N)c1C#N							> 10		
Nc1nc(C(=O)O)c(N=Nc2ccccc2)c(=O)[nH]1							> 100		
CC(=O)[CH-]C(C)=O.CC(=O)[CH-]C(C)=O.CC(=O)[CH-]C(C)=O.[Ga+3]	> 100 µM	> 100	> 100 µM			> 100		> 100	GI50 [1]: > 100 µM; GI50 [2]: > 100 µM; GI50 [3]: > 100 µM; GI50 [6]: > 100 µM; GI50 [8]: > 100 µM
CC(=O)CC(=O)CCC(=O)Nc1cccc(C(F)(F)F)c1	> 100 µM	> 100	> 100 µM		> 100 µM	> 100		> 100	
Cc1nnc(N/N=C(/C(=O)C(C#N)c2ccc(Cl)cc2)C(C#N)c2ccc(Cl)cc2)n1N (configuration not stated)	34 µM	26.6	42.4 µM		30 µM	41.2		46.6	
CCOC(=O)C(CCCNC(=O)OC(C)(C)C)N(Cc1ccc(OC)cc1OC)C(=O)CC(=O)CP(=O)(OCC)OCC (configuration not stated)	> 100 µM	> 100	> 100 µM	> 100 µM	> 100 µM	> 100			
O=C(CO)C1CC2C=CC1C2 (configuration not stated)	> 100 µM	> 100		> 100 µM				> 100	
N#CNC1=NC(N)C(c2nc3ccccc3[nH]2)=C(CCCC(=O)Nc2cccc([N+](=O)[O-])c2)N1 (configuration not stated)	> 100 µM	> 100	> 100 µM	> 100 µM	> 100 µM	> 100		> 100	
C/C(=N\NC(=S)N1CCN(c2ccccn2)CC1)c1ncccn1	3.71 µM and 15.2 µM		4.98 µM and 14.3 µM	2.67 µM and 11.2 µM	8.39 µM and 20.3 µM		14.8	13.8	GI50 [1]: 0.0311 µM; GI50 [3]: 0.0258 µM; GI50 [4]: 1.54 µM; GI50 [5]: 4.4 µM; GI50 [7]: 0.233 µM
